The values below come from patent US20220054658A1, “CONJUGATES” (Transfection Holdings Limited, priority 2018, published 2022).

SMILES strings stand for the structures. Entries after “also recorded” stand apart in the source; their conditions may differ.

Data set [1] relates to human embryonic kidney cells (HEK293). Put plainly: Cytotoxicity against HEK293 cells (CellTitre-Glo). Format: cell-based. To be noted: 100 μM, HEK293, 24 hours. The procedure: A sample compound was incubated at 100 μM with human embryonic kidney cells (HEK293) in Greiner 384 cell star plates for 24 hours before adding CellTitre-Glo® (Promega), an indicator of cell viability giving a luminescent output. In this assay, compounds showing greater than 40% cytotoxicity over two test runs at 100 μM are deemed to have shown cytotoxicity.

The test system of data set [2] is Escherichia coli. Put plainly: Bacteria testing: uptake in Escherichia coli. To be noted: FIG. 2(e); 25 μM, 45 minutes, 37° C.
Protocol: (§1) Bacteria cultured by inoculating LB media (Thermo-Fisher) with the desired bacteria and incubating overnight at 37° C. under an atmosphere of air. The OD600 was then measured and the concentration of bacteria calculated from this. The cultures were then diluted appropriately to give a concentration of 2×10^5 cells per mL. 1 mL of this culture was placed in a 5 mL centrifuge tube then centrifuged at 13,000 rpm for 5 minutes. The supernatant was removed and replaced with 1 mL of 25 μM solution of compound in media. The cultures were incubated for 45 minutes at 37° C. The cultures were centrifuged as before, the supernatant removed and the pellet resuspended in 1 mL of PBS. The cells were washed in this manner twice more. After the final washing the pellet was resuspended in 35 μL of water and spotted onto a slide. The slide was then protected with a coverslide before the images were analysed using an Olympus UV microscope system with a Leica imaging analysis software with a FITC fluorescent filter.
Data set [3] relates to Theileria parva. Put plainly: Uptake in erythrocyte infected with Theileria parva (FIG. 2(b)). The format is cell-based.
For data set [4], the system named is B. bovis Texas strain. Put plainly: Short-term uptake test in B. bovis infected RBCs (confocal microscopy).
Protocol: The parasite culture was centrifuged and washed once with GIT medium. RBC's were pellet down, and 20 μl infected RBC mixture (10 μl packed infected RBC+10 μl GIT) was prepared. Then, 180 μl GIT medium with compound the compound to be evaluated (final concentration 25 μM for BODIPY derivatives and 100 μM for phiLOV derivatives) or DMSO (0.1%)/PBS control was added. The samples were incubated for 45 min at 37° C. (Samples were stained 1 μg/mL diluted Hoechst 33342 in GIT medium). After incubation, the samples were centrifuged and the pellet was washed with GIT medium (3×). A final solution of 50% haematocrit infected RBC mixture was transferred to slides to be observed by confocal laser microscopy (Nikon A1).
Uptake experiments were performed by incubating the parasite (˜5% Parasitized Erythrocytes (PPE)) with each derivative at 25 μM and 37° C. for 45 min. After incubation, the fluorescence intensities were calculated from confocal microscope images.
The phiLOV double mutant (R475G, K476C) was used to generate derivatives P11, P1, P8, and P3 which were tested for uptake in B. bovis Texas strain using phiLOV as a control. The derivatives and the control were incubated at 100 μM and 37° C. for 45 min. After incubation, the samples were analysed under confocal microscopy using Hoeschst 33342 (Thermofisher) as co-stain.
In data set [5] the test system is L. passim strain PRA-403. Description: Lotmaria passim parasite uptake test. The format is cell-based. The note with it: 1 μM and 100 μM, room temperature, 45 min. The procedure: 100 mM stock solutions of BODIPY derivatives were prepared with dimethylsulfoxide (DMSO). L passim strain PRA-403 (ATCC) was cultured in modified medium for C. bombi (Tognazzo et al.). The parasite culture was centrifuged, supernatant was removed and 500 μL of L passim medium with compound (final concentration 500, 100, 10 or 1 μM for BODIPY derivatives) or DMSO (0.1%) control was added. Incubated for 45 min at room temperature.
Uptake tests were performed at 1 μM and 100 μM final concentration of CJ-BODIPY derivatives. After incubation at room temperature for 45 min, fluorescence intensities were evaluated using a microplate reader.

For data set [6], the system named is Staphylococcus aureus. Description: Bacteria testing: uptake in Staphylococcus aureus. The note with it: FIG. 2(g); 25 μM, 45 minutes, 37° C.
Protocol: as §1
In data set [7] the test system is Gram-negative and Gram-positive bacteria. Description: Bacteria testing: uptake in bacterial cultures. The note with it: 25 μM, 45 minutes, 37° C. Format: cell-based.
Data set [8] concerns P. falciparum. Description: Plasmodium falciparum testing: uptake by infected and non-infected red blood cells. Format: cell-based. The note with it: 25 μM, 45 minutes, 37° C., synchronised stage and mix-stage cultures. As to the method: Compounds 1, 5, 9, 10 and 11 were tested for uptake in both synchronised stage and mix-stage cultures at 25 μM concentrations.
The subject of data set [9] is T. annulata. Put plainly: Theileria annulata testing: uptake. Format: cell-based. The note with it: 1 hour, 37° C. The procedure:
T. annulata were cultured using RPMI 1640 with 10% Albumax II (Thermo-Fisher) serum. A standard hemocytometer was used to calculate the concentration of cells in the parent culture. […] For each compound and concentration to be tested, 2 mL of the culture were centrifuged at 1,000 rpm for 5 minutes. The medium was removed before the cells were resuspended in 950 μL of complete medium containing the compound to be tested at the desired concentration. This was prepared from a 100 mM stock solution of compound in DMSO. Once the cells were resuspended they were transferred to a 5 well plate (1 mL capacity per well). They were then incubated for 1 hour at 37° C. in an atmosphere of 5% CO2 in air. After the incubations were complete the contents of each well were transferred to a 10 mL centrifuge tube. Cold RPMI 1640 (Thermofisher) or HBSS added to obtain a volume of 5 mL. The suspension was then centrifuged at 1,000 rpm and at 4° C. for 5 minutes. […] After the final washing the pellet of cells was resuspended in a minimum amount of RPMI 1640 and then spotted onto a glass slide. The slide was then covered with a cover slip and analysed using Olympus BX60 UV microscope system with a Spot RT3 camera and Spot Image software with a FITC fluorescent filter.

Data set [10] has as its system C. elegans. Description: Conjugate uptake in C. elegans (dye and praziquantel conjugates, fluorescence microscopy). Format: in vivo, Caenorhabditis elegans. To be noted: for uptake: location of fluorescence in C. elegans: 50 μM. The procedure:
Nematode Growth Media (NGM) plates containing C. elegans were washed with 1.0-1.5 mL of standard M9 buffer and the washes were collected in an Eppendorf tube. The liquid containing the C. elegans was then spun for 1 min at room temperature at 10,000 rpm. The supernatant was removed, and fresh M9 buffer was added (500 μL) to generate a new stock solution of M9 buffer containing the C. elegans.
A C. elegans suspension (100 μL) was added a defined amount of M9 buffer (determined by the final desired concentration of compound to be tested: 399 μL in the case of the BODIPY tagged derivatives) contained within a separate Eppendorf tube. To this was then added a 25 mM solution of the compound in DMSO (1 μL). The resulting suspension was mixed using a vortex instrument.
The resulting mixture was incubated at room temperature for 2 to 4 h. in the dark (using aluminium foil to screen the tube, which was also stored in a cabinet).
Other samples were incubated overnight. Here, OP50 bacteria (3 μL) were added to the worms for feeding purposes, and the worms were kept in the dark at 20° C.
After the incubation, the tube contents were mixed gently by hand (typically by simple rotation of the tube), so as to achieve a homogenous suspension. A sample of the suspension (250 μL) was taken and mixed with M9 buffer (500 μL). The resulting suspension was placed in a centrifuge and spun at room temperature at 10,000 rpm for 1 min. The supernatant was removed, and the washing process was repeated twice more, each time using further quantities of fresh M9 buffer (500 μL each time). After the final washing sufficient supernatant was removed so as to leave a final sample volume of approximate 30 μL.
A 1.5% agarose solution in water was pre-warmed for 60 to 90 s. in a standard household style microwave (set to Power 4). Two drops of this solution was removed and placed on a glass slide. The glass slide was covered with a second glass slide. After 1 min., the slides were slid carefully apart, with the agarose remaining on one of the slides. Onto this slide was placed an aliquot of the final C. elegans solution (15 to 20 μL). To this was added a 20 mM sodium azide solution (5 μL) to inhibit nematode mobility. Vaseline was then placed around the agarose area before replacing the second slide. The slides were not pressed together.
The nematodes were then analysed using a Zeiss Axiskop 2 Plus microscope with a Hamamatsu Orca-ER (CA 742-95) camera. The images were resolved using OpenLab on a Mac operating system.
Compounds 1-11 were evaluated after 3 h and overnight incubation at a 50 μM concentration using the general uptake protocol described for C. elegans.
In order to compare the ability of a conjugate to improve the uptake of the drug praziquantel, two praziquantel derivatives were generated. Praziquantel was tagged with a BODIPY fluorescent tag (compound 12) and incorporated into a conjugate of the invention (compound 13). Compounds 12 and 13 were evaluated at a concentration of 50 μM using the C. elegans uptake protocol described above for compounds 1-11. Microscopic readings were taken after 3, 24 and 72 h.

The subject of data set [11] is Enterococcus faecalis. Put plainly: Bacteria testing: uptake in Enterococcus faecalis. To be noted: FIG. 2(f); 25 μM, 45 minutes, 37° C.
Protocol: as §1
The subject of data set [12] is T. brucei. Put plainly: Trypanosoma brucei testing: uptake. The format is cell-based. The note with it: 10-25 μM, 45 minutes, 37° C.

On to `CC1(C)OCC(C)(C)C(C(=O)N/C=C/C(=O)NCCCCCO[Si](c2ccccc2)(c2ccccc2)C(C)(C)C)O1` (stereo not shown), for which, in data set [1], the “outcome in the cytotoxicity screen” value is “inactive in the screen”. Further, in data set [1] (CellTitre-Glo, greater than 40% deemed cytotoxic), the cytotoxicity is on record as 3.7±0.6%.

`CC1=CC(C)=[N+]2C1=Cc1ccc(CCCn3cc(CCNC(=O)/C=C/NC(=O)[C@H](O)C(C)(C)CO)nn3)n1[B-]2(F)F` [Compound 5, (R,E)-N-((((3-[4,4-Difluoro-5,7-dimethyl-4-bora-3a,4a-diaza-s-indacene-3-yl]propyl)-1H-1,2,3-triazol-4-yl)ethylamino)-3-oxoprop-1-enyl)-2,4-dihydroxy-3,3-dimethylbutanamide]: the “uptake by Escherichia coli” value in data set [2] is reported as “uptake of the conjugate by the organism”. Moreover, in [3], the “accumulation in Theileria parva infected erythrocyte” value is on record as “seen to accumulate within the parasite”. The “uptake compared to compound 1 (% less)” value in data set [4] (25 μM, 37° C., 45 min, ~5% PPE) came to 30%. Further, in data set [4] (FIG. 2(a)), the “uptake by non-infected erythrocytes (B. bovis culture)” value is reported as “Non-infected erythrocytes do not take up the conjugate”. Besides, in data set [5], the “uptake in L. passim (fluorescence intensity, microplate reader)” value is given as “relatively low uptake”. Besides, in data set [6], the “uptake by Staphylococcus aureus” value is recorded as “uptake of the conjugate by the organism”. Further, the “uptake in bacterial cultures” value in data set [7] is “Uptake was seen both in the case of Gram-negative and Gram-positive bacteria”. In addition, in data set [8], the “uptake by infected and non-infected red blood cells” value is “selectively taken up by infected red blood cells; also recorded: accumulated within the parasite itself; also recorded: Non-infected erythrocytes do not take up the conjugate”. The “uptake in T. annulata” value in data set [9] is reported as “taken up by T. annulata; also recorded: selectively accumulated within the intracellular parasite”. Also, the “uptake: location of fluorescence in C. elegans” value in [10] (3 h incubation) was “small amounts of compound 5 were present in the gut cells, and the gut lumen of the larval stages, as well as in the pharynx, gut lumen and gut cells of adult nematodes; also recorded: not detected in the embryos”; in [10] (20 h / overnight incubation), “fluorescence remained in the pharynx, gut cells and gut lumen of both the larval and adult stages; also recorded: Fluorescence was also detected in the early stage of egg development, but not in the embryos”. The “distribution in C. elegans” value in data set [10] (FIG. 2(h), fluorescence microscopy) is reported as “localised with the digestive track of C. elegans”. Further, the “uptake by Enterococcus faecalis” value in data set [11] is recorded as “uptake of the conjugate by the organism”. Further, the “uptake in T. brucei” value in data set [12] is “taken up by T. brucei and forms small vesicles all over the trypanosome body, whilst not accumulating neither in the lysosome nor in the nucleus, but rather in a vesicle between the flagellar pocket and the lysosome; also recorded: taken up by T. brucei and forms small vesicles all over the trypanosome body”.
